Test results reported in patent publication US20250295631A1, “NOVEL TREATMENT” (University of Liverpool, priority 2022, published 2025).
Values joined by “and” are separate entries in the source; they are usually repeats but may differ in a detail not shown here. Equal entries are not always repeated. “Also recorded” adds a separate entry of the source. Where two headings read alike, the source gives them in different places. Values belong to the compound of their own block, whether it stands above or below them.

Key:
ex vivo porcine corneas = experiment: Ex vivo tensile testing of cross-linked porcine corneas (elastic modulus); design: species or system domestic pig (Sus domesticus)
Method: Eyes of the domestic pig (Sus domesticus) are collected from a local abattoir 0-4 hours post-mortem. Eyes are cleaned of excess tissue and fat and washed in PBS containing 200 U penicillin and 0.2 mg/ml streptomycin and 5 μg/ml amphotericin B (Merch Life Science, Dorset, UK). The eyes are stored in a petri dish containing the PBS antibiotic/antimycotic solution, corneas facing up, at 4° C. overnight.
The porcine eyes are removed from 4° C. and allowed to warm to room temperature. One-to-two drops of Minims Proxymetacaine hydrochloride 0.5% w/v (Bosch & Lomb, Surrey, UK) were applied to the cornea for 15 minutes, with additional drops added ever 5 minutes and then 2-3 minutes before treatment. After which a suction ring (E.Janach, Como, Italy) was attached to the cornea (FIG. 1) and 200 μl of BS^3 solution was added inside the ring. Eyes were incubated for 5, 15 or 30 mins at 37° C.; after which the BS^3 solution was aspirated and retained for pH measurement, and eyes were rinsed in PBS then stored, cornea facing down, in a 6-well plate with fresh PBS until tensile measurement.
Suction rings were applied to porcine corneas as in FIG. 1 and 18% ethanol solution was applied for 30 seconds before being adsorbed by a sponge spear. The cornea was then rinsed with PBS. After this the epithelium was removed with a corneal scraper and sponge spear. Once the epithelium was removed 0.1% riboflavin (Vibex Rapid™, Avedro Inc, MA, USA) was applied every 3 mins. Riboflavin was applied for a total of 30 mins for the Dresden protocol and 15 minutes for the Accelerated protocol.
After riboflavin treatment eyes were cross-linked by UVA light using and KXL System (Avedro Inc). UV light was applied at 3 mW/cm^2 for 30 mins for the Dresden protocol and 6 mW/cm^2 for 15 mins for the Accelerated protocol for a total applied energy of 5.4 J/cm^2 for both protocols.
The anterior section of the eye was removed by cutting around the globe 5-10 mm posteriorly from the limbus. The iris and ciliary process were removed from the posterior section of the tissue leaving only sclera and cornea. A strip of tissue was cut using a custom-made replaceable razor blade jig. Tissue thickness and width (determined as the distance between cutting edges) were measured with calipers.
(§1) The tissue strip was mounted in the grips of a Univert tensile tester (CellScale, Ontario, Canada) with a 50 N load cell. Tissue was stretched at a rate of 125 μm/s until failure. Data was captured at 1 Hz. Stress-strain curves were plotted and the elastic modulus was determined at a range of strains: 5-10%, 10-15%, 20-25% and 30-35%. Data were trimmed to 3% from the strain at ultimate tensile strain and 6 term polynomial equations we determined from each curve. […] These polynomials represent the stress-stain response of each cornea and were used to create an average stress-strain curve for the samples.
Ex vivo mechanical data were compared by One-way ANOVA and Tukey's post-hoc.

rabbit corneas [1] = experiment: Rabbit corneal tensile measurements after in vivo treatment; design: species or system New Zealand rabbits; conditions: for Percentage Change in Modulus After 3 Days Compared to Control / Percentage Change in Modulus Compared to Control: 0.2M BS^3 for 15 mins; for Percentage Change in Modulus After 3 Days Compared to Control: 3 days after treatment; for Percentage Change in Modulus Compared to Control: 28 days after treatment
Method: as §1
(§2) Male Wistar rats (300 g) and mixed sex New Zealand rabbits (1.5-3 kg), both specific-antigen free, were ordered from Charles River UK and ENVIGO, respectively. They were allowed a minimum of 7 days acclimatisation prior to procedures. Animals were anaesthetised and proxymetacaine hydrochloride 0.5% w/v was applied to the corneas. For the rats, a 2 cm section of silicone tubing was placed on the cornea whereas for the rabbits the suction ring (as above) was placed on the cornea, and 200 μl of the sterile filtered 0.2 M BS^3 solution was instilled for 15 mins. Following this, eyes were rinsed with saline. Animals were provided with antibiotic/steroid drops (Tobradex, Novartis Pharmaceuticals UK Ltd, London, UK) daily and were monitored for any signs for distress or ocular discomfort.
(§3) Aqueous humour was collected. Rat ocular tissue was collected and fixed in 10% paraformaldehyde for histology. Rabbit the eyes enucleated and prepared for mechanical testing which was conducted the following day and the remaining cornea was fixed. Ocular tissue was also fixed in 10% paraformaldehyde.
Rabbit eyes were collected immediately after culling and were stored in a petri dish containing the PBS antibiotic/antimycotic solution, corneas facing up, at 4° C. overnight. Mechanical testing was conducted using the protocol above for ex vivo porcine tissue.
(§4) Statistical analyses were performed with Prism 9.3.1 (GraphPad Software, San Diego, CA, USA). In vivo data were compared by paired t-tests to contralateral control eyes.

[2] = Method: To investigate cross-linker stability 0.2 M BS^3 was prepared in various buffers. The pH was measured using a SevenGO SG2 pH meter with an InLab Ultra-Micro-ISM electrode (Mettler Toldedo, Leicester, UK). Nine carbonate buffer and two phosphate buffer formulations were investigated. All were prepared in deionised H2O. Formulations can be seen in Table 1 below. The pH of BS^3 at concentrations of 0.2 M and 0.035 M (20 mg/ml as per patent US2014/0271897 A1 claim [0358]) in phosphate buffered saline (PBS) were also measured. The pH was measured immediately after addition BS3 and filtration (00:00) then at 30 mins, 1 hour, 2 hours, 3 hours, 4 hours, 24 hours.
BS^3 (bis(sulfosuccinimidyl)suberate, Thermo Scientific Pierce, IL, USA) solutions was prepared to concentrations of 0.2 M in the buffer solution, vortexed for 1 min and then filtered through 0.2 μm filter.

[3] = system: inflammatory cytokines in rat aqueous humour; conditions: in vivo
Method: as §2
as §3, with “The animals were euthanised at pre-determined time points (rats at 24 hours and 7 days; rabbits at 3 days post-treatment). Aqueous” for “Aqueous”
as §4

rat corneas = conditions: in vivo
Method: as §2
(§5) The animals were euthanised at pre-determined time points (rats at 24 hours and 7 days; rabbits at 3 days post-treatment). Aqueous humour was collected. Rat ocular tissue was collected and fixed in 10% paraformaldehyde for histology. […]
(§6) Corneal thickness and transparency were determined using optical coherence tomography (OCT) (ENVISU R2210, Leica Microsystems, Milton Keynes, UK) before treatment and prior to euthanasia. Corneal transparency was determined by the intensity of the pixels within the cornea minus background intensity from the corneal sections of the OCT images. […]

rabbit corneas [4] = conditions: in vivo
Method: as §2, §5, §6

[5] = Accelerated UV/Riboflavin protocol, strain range 5-10%
[6] = Dresden UV/riboflavin protocol, strain range 5-10%

pH by 30 minutes ([2]; 20 mg/ml (0.035 M) BS^3 in PBS (Dulbecco A), formulation of US2014/0271897 A1 [0358]): 5.18
precipitation ([2]; 0.2 M BS^3 in 0.1 M and 0.2 M carbonate buffers, at 24 hours): Precipitation was observed
initial pH after the addition of 0.2 M BS^3 ([2]; 0.2 M BS^3 in 0.5 M carbonate buffers): > 7
pH over the 24 hour testing period ([2]; 0.2 M BS^3 in 0.5 M carbonate:bicarbonate buffer, ratio 5:5): > 6
precipitation ([2]; 0.2 M BS^3 in 0.5 M carbonate:bicarbonate buffer, ratio 5:5, 24 hour testing period): did not have any precipitation
pH over the 24 hour testing period ([2]; 0.2 M BS^3 in 0.5 M carbonate:bicarbonate buffer, ratio 9:1): > 6
precipitation ([2]; 0.2 M BS^3 in 0.5 M carbonate:bicarbonate buffer, ratio 9:1, 24 hour testing period): did not have any precipitation
change in IL-2 in aqueous humour, treated vs control eyes [3]: −0.76 fold
change in IL-4 in aqueous humour, treated vs control eyes [3]: −0.63 fold
reductions in IL-2 and IL-4 in aqueous humour [3]: resolved by day 7
reduction in corneal thickness in the treated eye vs contralateral control (rat corneas): 42±29 μm
reduction in corneal thickness in the treated eyes vs contralateral control (rabbit corneas [4]): 100±20 μm
Compound: bis(sulfosuccinimidyl)suberate [BS3]
Percentage Change in Modulus Compared to Control (ex vivo porcine corneas; 20 mg/ml (0.035 M) BS3 in PBS (US2014/0271897 A1 [0358]), strain range 5-10%): −28%
Percentage Change in Modulus Compared to Control (ex vivo porcine corneas; 20 mg/ml (0.035 M) BS3 in PBS (US2014/0271897 A1 [0358]), strain range 10-15%): −10%
Percentage Change in Modulus Compared to Control (ex vivo porcine corneas; 20 mg/ml (0.035 M) BS3 in PBS (US2014/0271897 A1 [0358]), strain range 20-25%): 3%
Percentage Change in Modulus Compared to Control (ex vivo porcine corneas; 20 mg/ml (0.035 M) BS3 in PBS (US2014/0271897 A1 [0358]), strain range 30-35%): 15%
difference in elastic modulus compared to control (ex vivo porcine corneas; 20 mg/ml (0.035 M) BS^3 in PBS, any of the strain ranges, p>0.05): no significant difference
Percentage Change in Modulus Compared to Control (ex vivo porcine corneas; 0.2M BS3, 5 min treatment, strain range 5-10%): 76%
Percentage Change in Modulus Compared to Control (ex vivo porcine corneas; 0.2M BS3, 5 min treatment, strain range 10-15%): 60%
Percentage Change in Modulus Compared to Control (ex vivo porcine corneas; 0.2M BS3, 5 min treatment, strain range 20-25%): 42%
Percentage Change in Modulus Compared to Control (ex vivo porcine corneas; 0.2M BS3, 5 min treatment, strain range 30-35%): 12%
Percentage Change in Modulus Compared to Control (ex vivo porcine corneas; 0.2M BS3, 15 min treatment, strain range 5-10%): 109%
Percentage Change in Modulus Compared to Control (ex vivo porcine corneas; 0.2M BS3, 15 min treatment, strain range 5-10%, listed as BS^3): 109%
Percentage Change in Modulus Compared to Control (ex vivo porcine corneas; 0.2M BS3, 15 min treatment, strain range 10-15%): 68%
Percentage Change in Modulus Compared to Control (ex vivo porcine corneas; 0.2M BS3, 15 min treatment, strain range 10-15%, listed as BS^3): 68%
Percentage Change in Modulus Compared to Control (ex vivo porcine corneas; 0.2M BS3, 15 min treatment, strain range 20-25%): 43%
Percentage Change in Modulus Compared to Control (ex vivo porcine corneas; 0.2M BS3, 15 min treatment, strain range 30-35%): 18%
Percentage Change in Modulus Compared to Control (ex vivo porcine corneas; 0.2M BS3, 15 min treatment, strain range 30-35%, listed as BS^3): 18%
Percentage Change in Modulus Compared to Control (ex vivo porcine corneas; 0.2M BS3, 30 min treatment, strain range 5-10%): 56%
Percentage Change in Modulus Compared to Control (ex vivo porcine corneas; 0.2M BS3, 30 min treatment, strain range 10-15%): 54%
Percentage Change in Modulus Compared to Control (ex vivo porcine corneas; 0.2M BS3, 30 min treatment, strain range 20-25%): 45%
Percentage Change in Modulus Compared to Control (ex vivo porcine corneas; 0.2M BS3, 30 min treatment, strain range 30-35%): 22%
stiffness (elastic modulus) (ex vivo porcine corneas; 0.2 M BS^3 in 0.5 M carbonate:bicarbonate 9:1, 5 min treatment, strain range 5-10%): 5.43±2.23 MPa
stiffness (elastic modulus) (ex vivo porcine corneas; 0.2 M BS^3 in 0.5 M carbonate:bicarbonate 9:1, 15 min treatment, strain range 5-10%): 6.47±2.23 MPa
stiffness (elastic modulus) (ex vivo porcine corneas; 0.2 M BS^3 in 0.5 M carbonate:bicarbonate 9:1, 30 min treatment, strain range 5-10%): 4.84±2.02 MPa
Percentage Change in Modulus After 3 Days Compared to Control (rabbit corneas [1]; strain range 5-10%): −6%
Percentage Change in Modulus After 3 Days Compared to Control (rabbit corneas [1]; strain range 10-15%): 15%
Percentage Change in Modulus After 3 Days Compared to Control (rabbit corneas [1]; strain range 15-20%): 43%
Percentage Change in Modulus After 3 Days Compared to Control (rabbit corneas [1]; strain range 20-25%): 104%
Percentage Change in Modulus Compared to Control (rabbit corneas [1]; strain range 5-10%): 22%
Percentage Change in Modulus Compared to Control (rabbit corneas [1]; strain range 10-15%): 29%
Percentage Change in Modulus Compared to Control (rabbit corneas [1]; strain range 15-20%): 28%
Percentage Change in Modulus Compared to Control (rabbit corneas [1]; strain range 20-25%): 38%
effect on stiffness of corneal tissue vs untreated control eye (rabbit corneas [1]; 3 days, lower strain ranges (5-10% & 10-15%)): No significant difference; also recorded: insignificant effect
effect on stiffness of corneal tissue vs untreated control eye (rabbit corneas [1]; 28 days, lowest and highest strain ranges): No significant difference

Compound: Cc1cc2nc3c(=O)[nH]c(=O)nc-3n(C[C@H](O)[C@H](O)[C@H](O)CO)c2cc1C [Accelerated, riboflavin, reference compound]
Percentage Change in Modulus Compared to Control (ex vivo porcine corneas; [5]): 79%
difference in elastic modulus compared to control (ex vivo porcine corneas; [5]): not significantly different
elastic modulus (ex vivo porcine corneas; [5]): 5.45±2.97 MPa
Percentage Change in Modulus Compared to Control (ex vivo porcine corneas; Accelerated UV/riboflavin protocol, strain range 10-15%): 46%
Percentage Change in Modulus Compared to Control (ex vivo porcine corneas; Accelerated UV/riboflavin protocol, strain range 20-25%): 28%
Percentage Change in Modulus Compared to Control (ex vivo porcine corneas; Accelerated UV/riboflavin protocol, strain range 30-35%): 16%

Compound: Cc1cc2nc3c(=O)[nH]c(=O)nc-3n(C[C@H](O)[C@H](O)[C@H](O)CO)c2cc1C [Dresden, riboflavin, reference compound]
Percentage Change in Modulus Compared to Control (ex vivo porcine corneas; [6]): 158%
elastic modulus (ex vivo porcine corneas; [6]): 7.99±4.58 MPa
Percentage Change in Modulus Compared to Control (ex vivo porcine corneas; Dresden UV/riboflavin protocol, strain range 10-15%): 123% and 124%
Percentage Change in Modulus Compared to Control (ex vivo porcine corneas; Dresden UV/riboflavin protocol, strain range 20-25%): 62%
Percentage Change in Modulus Compared to Control (ex vivo porcine corneas; Dresden UV/riboflavin protocol, strain range 30-35%): 34%
